Reference: patent US11932850B2, “Cancer chemoprevention with STAT3 blockers” (Jill M. Siegfried, LLC, priority 2018, dated 2024)

Experiments:
[1] = tested on: Ki-67, p-STAT3, NF-κB in H1975 xenografts; experiment: IHC of H1975 xenografts after 5 daily iv injections; type: in vivo, nude mice; conditions: H1975 xenografts
Description: Because tumors treated for several weeks with the STAT3 decoy were largely composed of debris (as illustrated in FIG. 11), xenografts were examined after only 5 daily tail vein injections to determine what cellular changes were induced prior to collapse of the intracellular tumor structure. […] Tumors derived from H1975 xenografs were analyzed by immunohistochemical staining for p-STAT3 after 5 daily iv injections of either STAT3 decoy or mutant decoy. […] This effect is quantified in FIG. 9B.
Images were captured at 40× magnification. A shift from 41% of cells was observed and scored as high-grade staining with CS3M treatment to 13% with high-grade staining in the presence of CS3D, with corresponding increases in moderate- and low-grade staining in the STAT3 decoy treated group (FIG. 12B). […] Bright field images were captured at 40× magnification. Frequency of high-grade staining for p-STAT3 differed between CS3D and CS3M treatment groups (23% in CS3D-treated and 51% in CS3M treated, with corresponding increase in low-grade staining in presence of the active decoy (FIG. 9B). Significant degradation of p-STAT3 protein was detected by IHC in tumors was observed after treatment with CS3D. Percent of high staining fields was reduced from 48% to 22% while percent of fields with low staining increased, P<0.001 (FIG. 9B).
(§1) Immunohistochemical analysis: Tumors were excised for immunohistochemical (IHC) staining; 5-μm (micron) sections were cut from formalin-fixed paraffin-embedded tissue blocks, deparaffinized and rehydrated using successive washes of xylene followed by ethanol. Antigen retrieval was performed in a microwave oven (for 20 minutes) in an unmasking solution containing sodium citrate buffer followed by peroxidase blocking in 3% hydrogen peroxide. The sections were incubated in ABC blocking buffer (Vector laboratories Inc, Burlingame, California) for 1 hour at room temperature. Sections were then stained with H&E (hematoxylin and eosin) or subjected to sequential incubations with different primary antibodies and peroxidase-conjugated goat anti-rabbit secondary antibodies. The following primary antibodies were used (at the indicated dilutions): cleaved caspase-3 (#9664, Cell Signaling, 1:300), p-STAT3 (#9145, Cell Signaling, 1:400), Ki67 (#ab15580, Abcam, 1:1000). Sections were developed with DAB and counterstained with hematoxylin. Bright field microscopy was performed using Leica DM 4000 B LED microscope and images were captured at 20× and 40× magnification using LASv4.7 software. IHC analysis was done as a blinded study with 100 images from each treatment group graded as low, moderate, or high. Staining was graded as low (<30% positive cells per field, scored as 1), moderate (30-60% positive cells per field, scored as 2) or high (>60% positive cells per field, scored as 3).

[2] = tested on: M1 macrophages, M2 macrophages, MDSCs; experiment: Flow cytometry of immune cells isolated from lungs of NNK mice; type: in vivo; conditions: NNK 4 weeks then 1 week of drug administration
Excerpt: STAT3 also plays a central role in immune evasion. STAT3 specifically orchestrates immunosuppression by promoting M2 macrophage and myeloid-derived suppressor cells (MDSCs) activity while suppressing M1 macrophage function [Su et al. Int. J. Mol. Science 19: pll:E1803, 2018]. Thus STAT3 inhibition by CS3D should favor an antitumor immune response by enhancing M1 macrophage activity.
Lungs from mice were digested with RPMI media containing collagenase and DNase to obtained single cell suspension. The cells were counted and 1×10^6 cells were staining with fluorescent labeled CD45, CD11b, MHC II, Ly6C and F4/80. The labeled cells were gated and data acquired on LSR fortessa (BD Biosciences) and further analysed by Flowjo.

STAT3 = STAT3 (Homo sapiens, UniProt P40763); conditions: Leong et al., 2003; cited from earlier work
STAT3, sequence (P40763 whole entry, species assumed): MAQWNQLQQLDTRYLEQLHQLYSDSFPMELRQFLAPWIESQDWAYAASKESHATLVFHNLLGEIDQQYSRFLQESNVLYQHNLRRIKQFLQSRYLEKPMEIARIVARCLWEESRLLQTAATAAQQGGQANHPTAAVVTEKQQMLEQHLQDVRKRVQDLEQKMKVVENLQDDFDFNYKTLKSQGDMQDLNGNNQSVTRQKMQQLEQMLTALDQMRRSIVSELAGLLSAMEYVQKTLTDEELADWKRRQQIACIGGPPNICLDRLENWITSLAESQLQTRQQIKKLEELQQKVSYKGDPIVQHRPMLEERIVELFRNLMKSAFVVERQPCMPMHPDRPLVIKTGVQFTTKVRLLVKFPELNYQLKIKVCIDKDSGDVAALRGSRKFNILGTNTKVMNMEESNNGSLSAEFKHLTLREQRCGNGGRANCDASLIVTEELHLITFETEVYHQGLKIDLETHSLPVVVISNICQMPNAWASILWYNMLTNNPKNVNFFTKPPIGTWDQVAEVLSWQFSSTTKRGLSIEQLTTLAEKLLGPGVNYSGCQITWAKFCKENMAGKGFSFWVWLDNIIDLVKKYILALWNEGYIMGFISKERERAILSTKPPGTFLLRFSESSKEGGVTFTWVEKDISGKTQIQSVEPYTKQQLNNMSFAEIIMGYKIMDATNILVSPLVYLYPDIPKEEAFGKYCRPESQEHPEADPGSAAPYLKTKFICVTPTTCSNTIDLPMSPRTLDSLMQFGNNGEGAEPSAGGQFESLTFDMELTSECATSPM

[3] = tested on: cleaved caspase-3 in H1975 xenografts; experiment: IHC of cleaved caspase-3 in H1975 xenografts at end of treatment; type: in vivo, nude mice; conditions: after last day of treatment (day 14)
Excerpt: For mRNA levels in tumor lysates, CS3D produced a 60-70% reduction of c-Myc gene expression relative to GAPDH compared to CS3M (FIG. 7E). […] Some cleaved caspase 3 staining was localized in nuclei, where caspase-3 is known to be active. Some caspase 3 staining was also evident in fibroblasts.
as §1, with “The following primary antibodies were used (at the indicated dilutions): cleaved caspase-3 (#9664, Cell Signaling, 1:300), p-STAT3 (#9145, Cell Signaling, 1:400), Ki67 (#ab15580, Abcam, 1:1000). Sections were developed with DAB and counterstained with hematoxylin. Bright field microscopy was performed using Leica DM 4000 B LED microscope and images were captured at 20× and 40× magnification using LASv4.7 software. IHC analysis was done as a blinded study with 100 images from each treatment group graded as low, moderate, or high.” left out

[4] = tested on: c-Myc in H1975-derived tumors; experiment: c-Myc expression in H1975 xenograft tumors (Western blot); type: in vivo, nude mice; conditions: H1975 xenograft tumors, range among individual tumors
Description: FIGS. 7C and 7D show c-Myc is suppressed after CS3D treatment in vivo. At the end of the treatments, tumors were harvested, whole cell lysates were prepared and RNA extracted for target gene analysis by Western blotting and RT-qPCR GAPDH protein was used as internal loading control for immunoblotting. CS3D treated tumors (C4, C5, and C6) from separate animals show a decrease in c-Myc expression level relative to the CS3M-treated group (C1, C2, and C3) in 201T. […] Data are shown as mean+/−SEM.
To determine how CS3D blocks NSCLC growth, Western blot, qRT-PCR, and immunohistochemical analysis were performed to determine expression of c-Myc in residual tumors. These analyses identified a substantial downregulation of c-Myc protein (FIGS. 7C and 7D) and mRNA levels (FIG. 7E) in individual CS3D-treated tumors relative to CS3M-treated tumors in both 201T and H1975 xenografts. Some variability in protein levels among individual xenografts was observed (FIGS. 7C and 7D); the densitometry units for c-Myc protein after normalizing for GAPDH levels ranged from 0.11-0.16 units for CS3D-treated xenografts and 0.25-0.46 units for CS3M-treated tumors in H1975. Similarly, in 201T-derived tumors these measurements ranged from 0.015 to 0.51 units for CS3D and 0.28 to 0.97 units for CS3M. Even with this variability, the effect across the groups in both cell lines was significant (P<0.05 for H1975 and P<0.042 for 201T xenografts), with a mean decrease of 65% and 70%, respectively.

[5] = molecular target: T1, pSTAT3-ubiquitin complexes in H1975 cells (Homo sapiens, UniProt P40763); experiment: p-STAT3 immunoprecipitation and ubiquitin immunoblot; type: cell-based; conditions: H1975, 100 nM, 24 hr post-transfection
T1 construct: Post-transfection with either 100 nM CS3D or CS3M, H1975 were lysed in IP lysis buffer; endogenous in cells; host or cells: H1975
T1 sequence (P40763 2-770 limits assumed, one chain of several): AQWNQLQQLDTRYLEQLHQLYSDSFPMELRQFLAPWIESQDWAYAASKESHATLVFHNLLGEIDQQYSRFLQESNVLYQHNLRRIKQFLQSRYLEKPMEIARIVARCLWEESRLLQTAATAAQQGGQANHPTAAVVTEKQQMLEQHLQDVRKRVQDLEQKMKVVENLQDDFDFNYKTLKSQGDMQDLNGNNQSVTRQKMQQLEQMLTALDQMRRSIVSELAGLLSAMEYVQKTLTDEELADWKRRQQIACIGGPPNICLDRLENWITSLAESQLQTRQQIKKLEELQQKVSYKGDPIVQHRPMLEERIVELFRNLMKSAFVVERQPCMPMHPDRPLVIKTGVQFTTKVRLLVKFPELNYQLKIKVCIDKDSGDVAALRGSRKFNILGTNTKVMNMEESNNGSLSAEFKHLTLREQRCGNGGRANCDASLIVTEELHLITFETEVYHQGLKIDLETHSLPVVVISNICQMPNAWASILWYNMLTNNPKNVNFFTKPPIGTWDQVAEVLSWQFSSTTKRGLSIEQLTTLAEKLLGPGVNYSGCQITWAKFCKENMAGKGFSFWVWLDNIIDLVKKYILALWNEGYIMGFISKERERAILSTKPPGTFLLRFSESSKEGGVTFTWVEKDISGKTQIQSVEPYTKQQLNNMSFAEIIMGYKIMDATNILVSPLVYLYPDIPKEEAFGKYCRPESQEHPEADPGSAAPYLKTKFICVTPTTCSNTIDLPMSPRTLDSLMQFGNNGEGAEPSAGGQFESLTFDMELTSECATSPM

In the case of “CS3M: mutant inactive control of CS3D, T-A base pair replacing G-C base pair at position 9 (SEQ ID NO. 6); unable to bind STAT3 (GATTTAAGGGAAATGCSCATTTCCC; cyclic decoy, mutant control, further chemistry not given here) [reference compound]”, the Ki-67 high-grade staining ([1]; 5 daily injections) is reported as 41%, the “frequency of high-grade staining for p-STAT3” value ([1]; 5 daily iv injections) is reported as 51% and the “percent of high staining fields for p-STAT3” value ([1]; second statement in b134 (FIG. 9B)) is reported as 48%. The M2 macrophages [2] was 18.3%, the MDSCs [2] was 4.56% and the “binding to STAT3” value (STAT3) was “unable to bind STAT3”. For the same substance, the “fields scoring high level of cleaved caspase-3” value [3] was 10%, the “c-Myc protein densitometry normalized for GAPDH” value [4] was 0.25-0.46 units and the “ratio of pSTAT3-ubiquitin complex to STAT3 (densitometry)” value [5] was 0.74.
